Assay results published in ChEMBL document CHEMBL5346910, “N-sulfonyl peptide-hybrids as a new class of dengue virus protease inhibitors” (Eur J Med Chem, 2023).

Columns and labels:
[1] = biological target: Genome polyprotein (dengue virus type 2) (UniProt P29990); assay: Inhibition of DENV-2 NS2B-NS3 protease at 50 uM by biochemical enzymatic assay relative to control
[2] = biological target: Genome polyprotein (West Nile virus) (UniProt P06935); assay: Inhibition of West Nile virus NS2B-NS3 protease at 50 uM by biochemical enzymatic assay relative to control
Sequence of Genome polyprotein (West Nile virus) (P06935 whole entry): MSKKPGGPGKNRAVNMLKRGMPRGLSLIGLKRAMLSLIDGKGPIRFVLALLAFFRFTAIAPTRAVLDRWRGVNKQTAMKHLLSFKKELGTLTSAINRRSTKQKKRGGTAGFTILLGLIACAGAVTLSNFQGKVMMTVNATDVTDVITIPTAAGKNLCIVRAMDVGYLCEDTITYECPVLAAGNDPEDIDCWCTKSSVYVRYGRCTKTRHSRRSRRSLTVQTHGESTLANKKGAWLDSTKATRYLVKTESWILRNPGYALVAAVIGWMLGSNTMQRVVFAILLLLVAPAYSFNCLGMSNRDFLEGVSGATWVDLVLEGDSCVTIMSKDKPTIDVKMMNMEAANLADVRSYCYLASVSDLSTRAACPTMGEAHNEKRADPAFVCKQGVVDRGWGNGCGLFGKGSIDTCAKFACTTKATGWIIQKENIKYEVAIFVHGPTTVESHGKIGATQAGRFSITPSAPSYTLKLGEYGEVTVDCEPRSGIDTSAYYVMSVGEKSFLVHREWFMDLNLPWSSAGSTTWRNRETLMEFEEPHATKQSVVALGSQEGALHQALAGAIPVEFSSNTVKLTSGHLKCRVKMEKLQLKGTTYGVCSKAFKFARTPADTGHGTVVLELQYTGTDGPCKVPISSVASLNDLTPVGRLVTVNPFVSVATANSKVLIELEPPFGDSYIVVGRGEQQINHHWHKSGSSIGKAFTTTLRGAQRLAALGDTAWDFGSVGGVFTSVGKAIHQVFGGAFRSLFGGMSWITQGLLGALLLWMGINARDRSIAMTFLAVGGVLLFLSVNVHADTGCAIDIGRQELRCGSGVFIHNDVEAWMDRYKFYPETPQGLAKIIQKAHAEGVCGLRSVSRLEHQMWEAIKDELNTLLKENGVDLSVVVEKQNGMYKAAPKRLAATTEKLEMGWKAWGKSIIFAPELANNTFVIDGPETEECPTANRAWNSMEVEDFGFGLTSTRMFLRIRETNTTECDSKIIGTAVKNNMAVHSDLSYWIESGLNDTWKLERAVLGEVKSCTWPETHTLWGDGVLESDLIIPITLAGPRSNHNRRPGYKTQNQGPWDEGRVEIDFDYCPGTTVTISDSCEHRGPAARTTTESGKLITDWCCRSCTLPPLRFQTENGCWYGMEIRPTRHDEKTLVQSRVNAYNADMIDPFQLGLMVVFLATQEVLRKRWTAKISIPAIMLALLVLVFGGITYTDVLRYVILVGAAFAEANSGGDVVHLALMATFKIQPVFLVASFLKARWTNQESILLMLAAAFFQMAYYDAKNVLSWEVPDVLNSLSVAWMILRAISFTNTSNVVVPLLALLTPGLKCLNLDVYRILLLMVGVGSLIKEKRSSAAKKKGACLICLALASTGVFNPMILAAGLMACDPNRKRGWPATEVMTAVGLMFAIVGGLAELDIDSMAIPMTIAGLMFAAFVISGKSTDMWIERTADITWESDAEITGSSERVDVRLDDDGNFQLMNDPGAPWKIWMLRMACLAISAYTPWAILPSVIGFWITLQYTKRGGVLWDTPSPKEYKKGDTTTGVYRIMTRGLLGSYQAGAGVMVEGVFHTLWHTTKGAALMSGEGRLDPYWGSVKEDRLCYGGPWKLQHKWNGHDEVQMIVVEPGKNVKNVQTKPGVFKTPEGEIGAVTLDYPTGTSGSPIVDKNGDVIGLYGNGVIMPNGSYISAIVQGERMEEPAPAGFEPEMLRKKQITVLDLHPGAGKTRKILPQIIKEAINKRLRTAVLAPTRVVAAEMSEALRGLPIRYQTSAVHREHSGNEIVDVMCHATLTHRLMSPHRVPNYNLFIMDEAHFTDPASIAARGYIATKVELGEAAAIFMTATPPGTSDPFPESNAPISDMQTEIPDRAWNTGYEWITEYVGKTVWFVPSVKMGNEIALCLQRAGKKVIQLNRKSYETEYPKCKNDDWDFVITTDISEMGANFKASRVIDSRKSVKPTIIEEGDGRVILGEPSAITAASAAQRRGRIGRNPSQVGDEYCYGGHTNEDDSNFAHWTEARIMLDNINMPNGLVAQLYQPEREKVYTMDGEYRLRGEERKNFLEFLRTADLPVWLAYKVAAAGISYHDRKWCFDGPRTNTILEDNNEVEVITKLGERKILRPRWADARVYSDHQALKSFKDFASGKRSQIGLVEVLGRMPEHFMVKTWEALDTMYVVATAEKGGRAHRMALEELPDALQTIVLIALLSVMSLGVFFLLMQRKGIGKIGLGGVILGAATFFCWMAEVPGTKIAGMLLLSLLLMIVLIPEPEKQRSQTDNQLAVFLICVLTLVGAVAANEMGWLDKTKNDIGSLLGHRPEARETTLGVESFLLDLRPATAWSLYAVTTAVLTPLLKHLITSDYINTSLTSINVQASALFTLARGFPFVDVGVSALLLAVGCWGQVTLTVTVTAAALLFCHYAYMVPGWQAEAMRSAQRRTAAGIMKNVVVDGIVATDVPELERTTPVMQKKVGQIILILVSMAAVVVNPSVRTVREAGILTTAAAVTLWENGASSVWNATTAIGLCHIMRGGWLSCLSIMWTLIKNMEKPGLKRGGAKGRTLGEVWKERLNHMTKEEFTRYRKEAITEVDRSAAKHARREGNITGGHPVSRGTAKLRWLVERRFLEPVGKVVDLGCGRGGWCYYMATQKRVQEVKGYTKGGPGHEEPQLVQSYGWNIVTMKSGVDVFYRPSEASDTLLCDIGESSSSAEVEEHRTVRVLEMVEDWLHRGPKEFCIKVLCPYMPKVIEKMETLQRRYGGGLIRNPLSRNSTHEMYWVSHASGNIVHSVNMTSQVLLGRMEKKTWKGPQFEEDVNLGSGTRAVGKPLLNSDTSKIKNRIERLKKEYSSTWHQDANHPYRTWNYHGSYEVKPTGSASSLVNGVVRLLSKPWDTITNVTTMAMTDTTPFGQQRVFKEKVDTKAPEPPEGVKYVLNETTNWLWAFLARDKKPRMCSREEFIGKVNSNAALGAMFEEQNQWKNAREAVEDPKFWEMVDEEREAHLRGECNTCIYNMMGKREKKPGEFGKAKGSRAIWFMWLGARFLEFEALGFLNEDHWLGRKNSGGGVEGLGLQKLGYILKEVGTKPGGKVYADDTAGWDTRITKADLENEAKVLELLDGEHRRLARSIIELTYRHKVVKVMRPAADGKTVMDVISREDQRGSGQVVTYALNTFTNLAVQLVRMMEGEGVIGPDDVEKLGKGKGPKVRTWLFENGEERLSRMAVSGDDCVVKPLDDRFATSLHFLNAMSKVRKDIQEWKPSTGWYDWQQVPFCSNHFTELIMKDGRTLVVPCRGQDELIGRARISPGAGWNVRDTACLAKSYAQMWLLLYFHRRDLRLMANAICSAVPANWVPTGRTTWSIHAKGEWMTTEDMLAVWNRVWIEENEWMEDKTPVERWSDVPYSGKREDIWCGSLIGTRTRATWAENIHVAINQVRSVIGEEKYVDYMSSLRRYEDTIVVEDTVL

[3] = biological target: Prothrombin (Homo sapiens) (UniProt P00734); assay: Inhibition of Thrombin (unknown origin) at 25 uM by biochemical assay relative to control
Trypsin [4] = biological target: T1, Trypsin (Homo sapiens, UniProt P07477+P07478+P35030); assay: Inhibition of trypsin (unknown origin) at 50 uM by biochemical assay relative to control; assay type: protein assay
[5] = Cytotoxicity against human HeLa cells by CellTiter-Blue assay; assay type: toxicity, cell-based
Genome polyprotein [6] = biological target: T2, Genome polyprotein (dengue virus type 2, UniProt P29990); assay: Inhibition of DENV-2 NS2B-NS3 protease by biochemical enzymatic assay
[7] = Metabolic stability in rat liver microsomes measured for 120 mins by UV-based HPLC analysis; assay type: ADME, Microsome; conditions: 2 h
Trypsin [8] = biological target: T1, Trypsin; assay: Stability of the compound assessed as trypsin (unknown origin) mediated compound degradation incubated for 60 mins by UV-based HPLC analysis; assay type: ADME, protein assay; conditions: 1 h
[9] = Stability of the compound assessed as alpha-chymotrypsin (unknown origin) mediated compound degradation incubated for 60 mins by UV-based HPLC analysis; assay type: ADME; conditions: human, 1 h
Genome polyprotein [10] = biological target: T3, Genome polyprotein (West Nile virus, UniProt P06935); assay: Inhibition of West Nile virus NS2B-NS3 protease by biochemical enzymatic assay
T3 sequence (P06935 1371-1501 limits assumed): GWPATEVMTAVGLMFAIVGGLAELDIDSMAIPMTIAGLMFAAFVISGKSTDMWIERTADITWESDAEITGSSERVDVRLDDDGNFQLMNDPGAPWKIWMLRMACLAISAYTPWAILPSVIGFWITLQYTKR
T3 sequence (P06935 1502-2120 limits assumed): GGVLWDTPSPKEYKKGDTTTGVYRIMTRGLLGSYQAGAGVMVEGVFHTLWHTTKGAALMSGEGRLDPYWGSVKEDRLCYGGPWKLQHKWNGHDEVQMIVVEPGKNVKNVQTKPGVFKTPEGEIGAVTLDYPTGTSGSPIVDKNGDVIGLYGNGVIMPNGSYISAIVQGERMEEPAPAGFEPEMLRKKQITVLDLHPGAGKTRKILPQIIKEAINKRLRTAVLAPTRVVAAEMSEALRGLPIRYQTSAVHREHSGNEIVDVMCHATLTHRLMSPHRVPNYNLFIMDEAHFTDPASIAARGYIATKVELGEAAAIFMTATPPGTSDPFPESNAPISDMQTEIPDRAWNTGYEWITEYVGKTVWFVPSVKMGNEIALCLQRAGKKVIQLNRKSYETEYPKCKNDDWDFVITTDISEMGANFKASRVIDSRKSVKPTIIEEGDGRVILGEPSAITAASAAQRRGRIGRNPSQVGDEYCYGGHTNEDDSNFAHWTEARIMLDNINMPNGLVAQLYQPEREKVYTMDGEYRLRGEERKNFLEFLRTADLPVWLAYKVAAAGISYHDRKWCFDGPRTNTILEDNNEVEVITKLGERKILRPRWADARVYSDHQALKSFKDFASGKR

Genome polyprotein [11] = biological target: T2, Genome polyprotein; assay: Competitive inhibition of DENV-2 NS2B-NS3 protease assessed as inhibition constant by Cheng-Prusoff plot analysis
Genome polyprotein [12] = biological target: T3, Genome polyprotein; assay: Inhibition of West Nile virus NS2B-NS3 protease assessed as inhibition constant

Compound | inhibition [1] [%] | inhibition [2] [%] | inhibition [3] [%] | inhibition (Trypsin [4]) [%] | CC50 [5] [µM] | IC50 (Genome polyprotein [6]) [µM] | Stability [7] | Stability (Trypsin [8]) | Stability [9] | IC50 (Genome polyprotein [10]) [µM] | Ki (Genome polyprotein [11]) [µM] | Ki (Genome polyprotein [12]) [µM]
N=C(N)NCCC[C@H](NS(=O)(=O)c1ccc([N+](=O)[O-])cc1)C(=O)N[C@@H](CCCCN)C(=O)N[C@@H](C(N)=O)c1ccccc1 | 24.7 | 18.4 | < 10 | 30.6 | > 50 | – | – | – | – | – | – | –
Cc1ccc(S(=O)(=O)N(C)[C@@H](Cc2cccc(N)c2)C(=O)N[C@@H](CCCCN)C(=O)N[C@@H](C(N)=O)c2ccccc2)cc1 | 23.2 | < 10 | < 10 | < 10 | – | – | – | – | – | – | – | –
N=C(N)NCCC[C@H](NS(=O)(=O)c1ccc(Cl)cc1)C(=O)N[C@@H](CCCCN)C(=O)N[C@@H](C(N)=O)c1ccccc1 | 44.5 | 15.5 | < 10 | < 10 | > 50 | – | – | – | – | – | – | –
CN([C@@H](CCCNC(=N)N)C(=O)N[C@@H](CCCCN)C(=O)N[C@H](C(N)=O)c1ccccc1)S(=O)(=O)c1ccccc1 | 75.3 | < 10 | < 10 | < 10 | > 50 | 17.6 | – | – | – | – | – | –
N=C(N)Nc1ccc(C[C@H](NS(=O)(=O)c2ccccc2)C(=O)N[C@@H](CCCCN)C(=O)N[C@@H](C(N)=O)c2ccccc2)cc1 | 52.6 | < 10 | < 10 | < 10 | > 50 | – | Stable | Stable | Stable | – | – | –
CN([C@@H](Cc1cccc(N)c1)C(=O)N[C@@H](CCCCN)C(=O)N[C@@H](C(N)=O)c1ccccc1)S(=O)(=O)c1ccccc1 | 20.4 | < 10 | < 10 | < 10 | – | – | – | – | – | – | – | –
CN([C@@H](Cc1ccc(/C(N)=N/O)cc1)C(=O)N[C@@H](CCCCN)C(=O)N[C@@H](C(N)=O)c1ccccc1)S(=O)(=O)c1ccccc1 | 58.5 | < 10 | < 10 | < 10 | > 50 | – | – | – | – | – | – | –
CN([C@@H](CCCNC(=N)N)C(=O)N[C@@H](CCCCN)C(=O)N[C@@H](C(N)=O)c1ccccc1)S(=O)(=O)c1ccccc1 | 80.6 | < 10 | < 10 | < 10 | > 50 | 11 | Stable | Stable | Stable | – | – | –
CN([C@@H](Cc1ccc(C(=N)N)cc1)C(=O)N[C@@H](CCCCN)C(=O)N[C@@H](C(N)=O)c1ccc(OCc2ccc(Cl)c(Cl)c2)cc1)S(=O)(=O)c1ccccc1 | 98.6 | 84.8 | 15.8 | 11 | 45.3 | 0.089 | – | – | – | 12.1 | 0.078 | 5.1
CN([C@@H](Cc1ccc(NC(=N)N)cc1)C(=O)N[C@@H](CCCCN)C(=O)N[C@@H](C(N)=O)c1ccccc1)S(=O)(=O)c1ccccc1 | 97.6 | 14.9 | < 10 | 17.1 | > 50 | 2.72 | Stable | Stable | Stable | – | – | –
N=C(N)NCCC[C@H](NC(=O)c1ccccc1)C(=O)N[C@@H](CCCCN)C(=O)N[C@@H](C(N)=O)c1ccc(OCc2ccccc2)cc1 | – | – | < 10 | – | > 50 | – | – | – | – | – | – | –
N=C(N)NCCC[C@H](NS(=O)(=O)c1ccccc1)C(=O)N[C@@H](CCCCN)C(=O)N[C@@H](C(N)=O)c1ccccc1 | 44.3 | 22.3 | < 10 | < 10 | > 50 | – | Stable | – | – | – | – | –
CN([C@@H](Cc1ccc(C(=N)N)cc1)C(=O)N[C@@H](CCCCN)C(=O)N[C@@H](C(N)=O)c1ccc(OCc2ccccc2)cc1)S(=O)(=O)c1ccccc1 | 99 | 68.9 | 22.9 | 22 | > 200 | 0.11 | – | – | – | 22.2 | 0.092 | –
Cc1ccc(S(=O)(=O)N(C)[C@@H](CCCNC(=N)N)C(=O)N[C@@H](CCCCN)C(=O)N[C@@H](C(N)=O)c2ccccc2)cc1 | 75.8 | < 10 | < 10 | 20.3 | > 50 | 17.9 | – | – | – | – | – | –
